Test results published in patent US8501708B2, “Adenosine compounds and their use thereof” (Inotek Pharmaceuticals Corporation, priority 2011, dated 2013).

Tests used:
[1] = molecular target: human recombinant A3 adenosine receptor (Homo sapiens (Human), UniProt P0DMS8); test: Adenosine receptor binding, displacement of specific [3H]NECA binding; settings: [3H]NECA displacement, CHO cells stably transfected with human recombinant A3 adenosine receptor
From the text: (§1) The compounds were studied in binding assays to determine their selectivity and potency to the A1, A2a and A3 adenosine receptors.

[2] = molecular target: human recombinant A2A adenosine receptor (Homo sapiens (Human), UniProt P29274); test: as above; settings: [3H]NECA displacement, CHO cells stably transfected with human recombinant A2A adenosine receptor
From the text: as §1

[3] = molecular target: human recombinant A1 adenosine receptor (Homo sapiens (Human), UniProt P30542); test: Adenosine receptor binding, displacement of specific [3H]CCPA binding; settings: [3H]CCPA displacement, CHO cells stably transfected with human recombinant A1 adenosine receptor
From the text: as §1

[4] = test system: ocular normotensive Dutch-Belted rabbits; test: Changes in intraocular pressure after topical administration to the eye; format: in vivo, rabbit; settings: for changes in IOP relative to baseline after dosing (in words): 0-6 hours
Method: The study involved groups of eight rabbits and the rabbits were acclimated for two days before they received a single dose in either the right eye or left eye of the HPCD control. The IOP of the groups of rabbits were recorded at 0, 1, 2, 4 and 6 hours after dosing of the control.

Sequence of human recombinant A2A adenosine receptor (P29274 whole entry): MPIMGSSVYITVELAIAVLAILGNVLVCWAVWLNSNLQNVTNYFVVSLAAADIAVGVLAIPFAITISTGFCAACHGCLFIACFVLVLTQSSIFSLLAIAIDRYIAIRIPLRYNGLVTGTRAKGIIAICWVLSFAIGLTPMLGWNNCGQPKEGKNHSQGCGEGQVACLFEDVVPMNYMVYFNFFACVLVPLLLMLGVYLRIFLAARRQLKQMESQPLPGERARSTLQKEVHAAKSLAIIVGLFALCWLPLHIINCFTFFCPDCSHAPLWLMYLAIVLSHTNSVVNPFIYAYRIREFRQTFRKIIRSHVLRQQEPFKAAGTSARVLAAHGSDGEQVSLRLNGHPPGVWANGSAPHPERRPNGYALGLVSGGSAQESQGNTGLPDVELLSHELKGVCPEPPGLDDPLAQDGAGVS
Sequence of human recombinant A1 adenosine receptor (P30542 whole entry): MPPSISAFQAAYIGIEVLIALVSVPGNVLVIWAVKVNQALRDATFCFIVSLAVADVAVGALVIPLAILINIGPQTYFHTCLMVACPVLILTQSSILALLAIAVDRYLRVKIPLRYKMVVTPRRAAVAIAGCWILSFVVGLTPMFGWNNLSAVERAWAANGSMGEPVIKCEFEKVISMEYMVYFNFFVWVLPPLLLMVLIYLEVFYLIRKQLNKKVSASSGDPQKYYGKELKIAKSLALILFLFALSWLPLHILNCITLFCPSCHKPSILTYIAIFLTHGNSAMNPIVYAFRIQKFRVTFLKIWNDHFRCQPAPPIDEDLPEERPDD
Sequence of human recombinant A3 adenosine receptor (P0DMS8 whole entry): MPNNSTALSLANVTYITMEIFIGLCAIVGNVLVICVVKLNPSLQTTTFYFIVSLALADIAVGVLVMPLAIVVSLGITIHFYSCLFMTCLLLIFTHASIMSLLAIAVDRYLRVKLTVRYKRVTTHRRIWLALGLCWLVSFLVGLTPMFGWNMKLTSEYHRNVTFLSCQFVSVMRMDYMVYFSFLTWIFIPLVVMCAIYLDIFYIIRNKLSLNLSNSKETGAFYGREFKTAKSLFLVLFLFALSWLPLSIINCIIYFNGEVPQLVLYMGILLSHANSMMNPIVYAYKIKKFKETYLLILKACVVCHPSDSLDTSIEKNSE

Ki [1] [nM] | Ki [2] [µM] | Ki [3] [nM] | SMILES | return of IOP to baseline levels, time post dosing ([4]; topical single dose 200 mcg) [h] | reduction of IOP ([4]; topical single dose 200 mcg in HPCD formulation, 2 hours post dosing) [%] | changes in IOP relative to baseline after dosing (in words) ([4]; topical single dose 200 mcg)
2550 | 25.4 | 29 | Cc1ccc(CO[C@H]2CCC[C@@H]2Nc2ncnc3c2ncn3[C@@H]2O[C@H](CO)[C@@H](O)[C@H]2O)cc1 [Compound 3, (2R,3S,4R,5R)-2-(hydroxymethyl)-5-(6-((1S,2S)-2-(4-methylbenzyloxy)cyclopentylamino)-9H-purin-9-yl)tetrahydrofuran-3,4-diol] |  |  | 
1570 | 7.33 | 12.6 | Cc1ccccc1CO[C@H]1CCC[C@@H]1Nc1ncnc2c1ncn2[C@@H]1O[C@H](CO)[C@@H](O)[C@H]1O [Compound 7, (2R,3S,4R,5R)-2-(hydroxymethyl)-5-(6-((1S,2S)-2-(2-methylbenzyloxy)cyclopentylamino)-9H-purin-9-yl)tetrahydrofuran-3,4-diol] |  |  | 
5100 | 0.422 | 2.28 | Cc1ccccc1CO[C@@H]1CCC[C@H]1Nc1ncnc2c1ncn2[C@@H]1O[C@H](CO)[C@@H](O)[C@H]1O [Compound 18, (2R,3S,4R,5R)-2-(hydroxymethyl)-5-(6-((1R,2R)-2-(2-methylbenzyloxy)cyclopentylamino)-9H-purin-9-yl)tetrahydrofuran-3,4-diol] | 6 | 20 | 
2620 | 3.37 | 2.65 | Cc1cccc(CO[C@@H]2CCC[C@H]2Nc2ncnc3c2ncn3[C@@H]2O[C@H](CO)[C@@H](O)[C@H]2O)c1 [Compound 17, (2R,3S,4R,5R)-2-(hydroxymethyl)-5-(6-((1R,2R)-2-(3-methylbenzyloxy)cyclopentylamino)-9H-purin-9-yl)tetrahydrofuran-3,4-diol] |  |  | do not show significant changes in IOP
4040 | 2.55 |  | OC[C@H]1O[C@@H](n2cnc3c(N[C@@H]4CCC[C@H]4OCc4cccc(F)c4)ncnc32)[C@H](O)[C@@H]1O [Compound 19, (2R,3R,4S,5R)-2-(6-((1R,2R)-2-(3-fluorobenzyloxy)cyclopentylamino)-9H-purin-9-yl)-5-(hydroxymethyl)tetrahydrofuran-3,4-diol] |  |  | 
551 |  |  | OC[C@H]1O[C@@H](n2cnc3c(N[C@@H]4CCC[C@H]4OCc4cccc(I)c4)ncnc32)[C@H](O)[C@@H]1O [Compound 22, (2R,3S,4R,5R)-2-(hydroxymethyl)-5-(6-((1R,2R)-2-(3-iodobenzyloxy)cyclopentylamino)-9H-purin-9-yl)tetrahydrofuran-3,4-diol] |  |  | 
1630 | 5.54 |  | OC[C@H]1O[C@@H](n2cnc3c(N[C@H]4CCC[C@@H]4OCc4cccc(F)c4)ncnc32)[C@H](O)[C@@H]1O [Compound 8, (2R,3R,4S,5R)-2-(6-((1S,2S)-2-(3-fluorobenzyloxy)cyclopentylamino)-9H-purin-9-yl)-5-(hydroxymethyl)tetrahydrofuran-3,4-diol] |  |  | 
1350 | 5.32 | 2.79 | Cc1cccc(CO[C@H]2CCC[C@@H]2Nc2ncnc3c2ncn3[C@@H]2O[C@H](CO)[C@@H](O)[C@H]2O)c1 [Compound 6, (2R,3S,4R,5R)-2-(hydroxymethyl)-5-(6-((1S,2S)-2-(3-methylbenzyloxy)cyclopentylamino)-9H-purin-9-yl)tetrahydrofuran-3,4-diol] |  |  | 
3710 | 3.78 |  | OC[C@H]1O[C@@H](n2cnc3c(N[C@@H]4CCC[C@H]4OCc4ccc(F)cc4)ncnc32)[C@H](O)[C@@H]1O [Compound 20, (2R,3R,4S,5R)-2-(6-((1R,2R)-2-(4-fluorobenzyloxy)cyclopentylamino)-9H-purin-9-yl)-5-(hydroxymethyl)tetrahydrofuran-3,4-diol] |  |  | 
> 100000 |  |  | OC[C@H]1OC(n2cnc3c(NC4CCCCC4OCc4ccccc4)ncnc32)[C@H](O)[C@@H]1O (stereo partly shown) [Compound 4] |  |  | 
1290 |  |  | OC[C@H]1O[C@@H](n2cnc3c(N[C@H]4CCC[C@@H]4OCc4cccc(I)c4)ncnc32)[C@H](O)[C@@H]1O [Compound 11, (2R,3S,4R,5R)-2-(hydroxymethyl)-5-(6-((1S,2S)-2-(3-iodobenzyloxy)cyclopentylamino)-9H-purin-9-yl)tetrahydrofuran-3,4-diol] |  |  | do not show significant changes in IOP
> 100000 |  |  | OC[C@H]1OC(n2cnc3c(NC4CCCCC4OCc4ccccc4)ncnc32)[C@H](O)[C@@H]1O (stereo partly shown) [Compound 5] |  |  | 

SMILES | Ki [1] [nM] | Ki [2] [µM] | Ki [3] [nM] | return of IOP to baseline levels, time post dosing ([4]; topical single dose 200 mcg) [h] | reduction of IOP ([4]; topical single dose 200 mcg in HPCD formulation, 2 hours post dosing) [%] | changes in IOP relative to baseline after dosing (in words) ([4]; topical single dose 200 mcg)
OC[C@H]1OC(n2cnc3c(NC4CCC[C@@H]4OCc4ccc(F)cc4)ncnc32)[C@H](O)[C@@H]1O (stereo partly shown) [Compound 9] | 1870 | 11.4 |  |  |  | 
